Assay results as given in US20220211699A1 (priority 2019, published 2022).

Columns and labels:
[1] = test system: diabetic patients suffering from peripheral diabetic neuropathy; conditions: 100 mg/day in a divided dose; 6 diabetic patients; cited from earlier work
[2] = test system: adult diabetic patients with painful distal symmetrical polyneuropathy; conditions: oral 50 or 100 mg/day; after 2 weeks of therapy; cited from earlier work
[3] = test system: patients with diabetic neuropathy; assay: Clinical study, SF-36 Mental Component Summary (MCS): positive risk of depression or anxiety; type: in vivo; conditions: Group 3
Method: (§1) The clinical study was carried out on a population of 142 patients with diabetic neuropathy of both sexes and aged between 18 and 75 years. Patients were divided into three groups and submitted to a randomized, double blind, placebo-controlled, parallel-group clinical trial, with double-dummy modality for patients in group 2.
(§2) Group 1 was treated with 20 mg trazodone (10 drops of 6% trazodone hydrochloride solution) three times a day for 8 weeks, for a total of 60 mg a day.
(§3) Group 2 was treated with 10 mg trazodone (5 drops of 6% trazodone hydrochloride solution) three times a day for 8 weeks, for a total of 30 mg a day.
(§4) Group 3 was treated with placebo, 10 drops of an oral solution three times a day for 8 weeks.
(§5) During the ninth week, concluding the clinical trial, group 1 was treated with 10 mg trazodone three times daily for a total of 30 mg per day, while both group 2 and group 3 were treated with placebo.
Gabapentin was administered in an incremental dosage for all patients treated according to the dosage regimen shown in Table 1 below using capsules containing 100 mg, 300 mg and 400 mg of commercially available gabapentin (Neurontin®, Pfizer). […]
The results are expressed as a percentage of patients with a positive risk of depression or anxiety compared to the normal general population in which a normal value of […] is estimated.

[4] = test system: patients with diabetic neuropathy; assay: Clinical study, Brief Pain Inventory-Short Form (BPI-SF) pain self-assessment; type: in vivo; conditions: Group 3
Method: as §1, §2, §3, §4, §5
The 6% trazodone hydrochloride solution contained trazodone hydrochloride (6%), macrogol (35%), propylene glycol (30%), citric acid (0.5%), sucrose (0.15%), sodium hydroxide (0.125%), propyl gallate (0.10%), disodium edetate (0.05%), and purified water as needed at 100 mL. The placebo solution is identical to trazodone solution, but without active ingredient.
Gabapentin was administered in an incremental dosage for all patients treated according to the dosage regimen shown in Table 1 below using capsules containing 100 mg, 300 mg and 400 mg of commercially available gabapentin (Neurontin®, Pfizer). The capsules contain lactose monohydrate, corn starch and talc as excipients, and E171 and […] color combinations.
At the beginning of treatment and at the end of each treatment week, the patients under treatment completed the Brief Pain Inventory-Short Form (BPI-SF), which includes a set of questions relating to pain self-assessment (Zelman D C, et al., “Validation of a modified version of the pain inventory brief for painful diabetic peripheral neuropathy”, J. Pain Symptom Manage. 2005 April; 29(4):401-10).
In particular, patients assessed the average pain intensity in the week prior to the assessment (issue 5) and at the time of the assessment (issue 6) on a scale from 0 to 10 where 0 represents “no pain” and 10 represents “more pain than you can imagine”.
At each visit the evaluations were collected and processed in order to determine the deviation from the average value obtained for each group at the beginning of the treatment. The results were collected in the following Tables 3 and 4, from which the graphs shown in FIGS. 1 and 2 were obtained, respectively.

[5] = Visit 1, placebo drops + gabapentin 300 mg/day
[6] = Visit 2, placebo drops + gabapentin 600 mg/day
[7] = Visit 3, placebo drops + gabapentin 900 mg/day
[8] = Visit 4, placebo drops + gabapentin 1200 mg/day
[9] = Visit 5, placebo drops + gabapentin 1800 mg/day
[10] = Visit 6, placebo drops + gabapentin 2400 mg/day
[11] = Visit 7, placebo drops + gabapentin 2400 mg/day
[12] = Visit 8, placebo drops + gabapentin 2400 mg/day
[13] = Visit 9, placebo drops + gabapentin
[14] = placebo drops + incremental gabapentin

For O=c1n(CCCN2CCN(c3cccc(Cl)c3)CC2)nc2ccccn12 [trazodone, 2-(3-[4-(3-chlorophenyl)piperazin-1-yl]propyl)-[1,2,4]triazole[4,3-a]pyridin-3(2H)-one], the “effect in pain relief and numbness” value [1] is listed as “good effect”, the “patients with complete relief” value [2] is listed as 22.6% and the “patients with symptomatic relief” value [2] is listed as 61.3%.

In the case of NCC1(CC(=O)O)CCCCC1 [gabapentin, 2-[1-(aminomethyl)cyclohexyl] acetic acid], the “percentage of patients with a positive risk of depression or anxiety” value ([3]; Visit 0 (beginning of treatment, baseline)) is reported as 38%, the “percentage of patients with a positive risk of depression or anxiety” value ([3]; Visit 8 (end of treatment), placebo drops + incremental gabapentin) is reported as 29% and the “Average pain assessment deviation from beginning of treatment (Visit 0), Question 5” value (“Average pain assessment deviation … Question 5” for short) [4, 5] is reported as −1.0. The “Average pain assessment deviation from beginning of treatment (Visit 0), Question 6” value (“Average pain assessment deviation … Question 6” for short) [4, 5] was −0.9, the “Average pain assessment deviation … Question 5” value [4, 6] was −1.7 and the “Average pain assessment deviation … Question 6” value [4, 6] was −1.4. The “Average pain assessment deviation … Question 5” value [4, 7] was −2.1, the “Average pain assessment deviation … Question 6” value [4, 7] was −1.7 and the “Average pain assessment deviation … Question 5” value [4, 8] was −1.9. For the same compound, the “Average pain assessment deviation … Question 6” value [4, 8] was −1.6, the “Average pain assessment deviation … Question 5” value [4, 9] was −2.1 and the “Average pain assessment deviation … Question 6” value [4, 9] was −1.8. The “Average pain assessment deviation … Question 5” value [4, 10] was −2.4, the “Average pain assessment deviation … Question 6” value [4, 10] was −2.0 and the “Average pain assessment deviation … Question 5” value [4, 11] was −2.4. The “Average pain assessment deviation … Question 6” value [4, 11] was −1.9, the “Average pain assessment deviation … Question 5” value [4, 12] was −2.5 and the “Average pain assessment deviation … Question 6” value [4, 12] was −2.0. For the same compound, the “Average pain assessment deviation … Question 5” value [4, 13] was −2.5, the “Average pain assessment deviation … Question 6” value [4, 13] was −2.0 and the “Patients with 50% reduction (percentage of patients with a reduction of at least 50% compared to the initial value), question 5” value [4, 14] was 45.8%. For the same compound, the “Sum deviations (sum of all the deviations obtained at each visit), question 5” value [4, 14] was −117.6.
